Experimental data as given in US10610586B2, “Compositions for antigen-specific induction of tolerance” (STALLERGENES, priority 2005, dated 2020).

Experiments:
[1] = test system: human T cells; assay: Gene expression by human T cells after coculture with adjuvant-treated DC (quantitative PCR); assay type: cell-based; conditions: human DC treated with adjuvant 24 h, cultured with allogenic naive CD4+ T cells, mRNA 24 h to 5 days later; only above 2-fold increase considered significant
Protocol: Dendritic cells DC were treated with candidate adjuvants for 24 h, washed and cultured with purified allogenic naïve CD4+ T cells. mRNAs were extracted 24 h to 5 days later and gene expression was assessed by quantitative PCR with primers specific for the tested genes. Only data above 2-fold increase were considered as significant.
A human in vitro model, consisting of a coculture of human pretreated DC with allogenic T cells, has been used to select IL-10-inducing adjuvants. Briefly, human DC were treated with adjuvants. After 24 h, the DC were washed and cultured with allogenic naive CD4+ T cells. After 24 h to 5 days, gene expression in human T cells was assessed by quantitative PCR.

[2] = test system: BALB/c mice sensitized with OVA; assay: Sublingual tolerization in a therapeutic model of type I allergy: airway responsiveness by whole body plethysmography; assay type: in vivo; conditions: adjuvant given sublingually together with OVA 500 μg twice a week for 2 months to OVA-sensitized mice; methacholine 50 mg/ml; compared to PBS-treated mice or OVA alone
Protocol: Sensitization was performed by two intraperitoneal (i.p.) injections in 14 days interval with 10 μg OVA adsorbed to 2 mg Al(OH)3 in a total volume of 100 μl. The sensitization was followed by a 20 min aerosol challenge with 1% w/v OVA on 5 consecutive days with an aerosol delivery system (Buxco Europe; Ltd, UK). Control animals were sham treated with sterile PBS. For tolerance induction in a therapeutic model, sensitized mice were sublingually treated with OVA or OVA plus adjuvant every week, twice a week, during 2 months at a concentration of 500 μg (20 μl). Control mice were sensitized with OVA followed by sham tolerization with PBS. Measurements of airway responsiveness were performed by whole body plethysmography (Buxco Europe; Ltd, UK), 48 h after the last challenge for sensitisation or tolerization. Airflow signals were recorded in response to aerosolized methacholine (50 mg/ml), 1 minute, four times. The higher value of Penh (enhanced pause) was taken into account for the calculation of the Penh index (Penh index=Penh measured/Penh PBS).

[3] = test system: TGF-β; assay: TGF-β production in supernatant of spleen cell cultures after sublingual tolerization; assay type: in vivo; conditions: OVA-sensitized mice treated sublingually with OVA plus adjuvant; compared to PBS-treated mice or OVA alone
Protocol: For tolerance induction in a therapeutic model, sensitized mice were sublingually treated with OVA or OVA plus adjuvant every week, twice a week, during 2 months at a concentration of 500 μg (20 μl). Control mice were sensitized with OVA followed by sham tolerization with PBS. Dosage of TGF-β from supernatants of spleen cell cultures was performed with an ELISA kit (R&D systems). Mice were killed by cervical dislocation. Spleens cells were isolated and plated in triplicate in 96-well flat-bottomed ELISPOT plates (Millipore, Massachussets) at densities of 2×10^5 cells per well. Different conditions were used: medium alone, OVA (100μg/ml) and PMA (phorbol myristyl acetate) (50 ng/ml, Sigma)/ionomycin (500 ng/ml, Sigma) which was used as positive control. Spot forming cells (SFCs) were monitored for IFN-γ, IL-5 and IL10. Elispot kits were from R&D systems Europe.

Lactobacillus plantarum [L. plantarum]
Gene expression by T cells: IL10 [1]: induce IL10 gene expression | airway responsiveness (Penh in response to methacholine) [2]: reduction of airway responsiveness | TGF-β production in supernatant of spleen cell cultures [3]: enhanced
